Results from US20250313563A1, “GLYCOGEN SYNTHASE KINASE 3 INHIBITORS AND USES THEREOF” (The Broad Institute, Inc., priority 2022, published 2025).
Read-outs that look alike come from different tables or passages of the source.

Columns and labels:
[1] = target: GSK3b (GST-full length GSK3b) (Homo sapiens (Human), UniProt P49841); test: GSK3b TR-FRET kinase assay; type: biochemical
Procedure: (§1) TR-FRET Assay: The assay was performed in a white, 384 well, low volume, flat bottom plate (Grenier). After a 30 minute preincubation in assay buffer with the indicated concentration of compound, the kinase activity was initiated by the addition of the substrates. 1 nM GSK3α (GST-full length GSK3α [SignalChem G08-10G]) or 1 nM GSK3b (GST-full length GSK3b: [SignalChem G08-9G]) were then incubated at ambient temperature for 100 minutes in 10 μL of 50 mM Tris, pH 7.5, 20 mM MgCl2, 0.05 mM DTT, 100 μg/mL BSA and 1% DMSO, with 200 nM biotinylated peptide substrate (biotinylated and S645 phosphorylated glycogen synthase 631-650) and either 4 μM ATP (GSK3α, Table 16) or 2 μM ATP (GSK3b, Table 16) or 1 mM ATP (Table 17). The kinase activity was quenched with 2 μL of 250 mM EDTA. A 10 μL volume of 40 nM Strepavidin-d2, 2 nM Tb^2+-pSer641 antibody in TR-FRET Detection Buffer (Invitrogen) was then added. After 60 min at room temperature the plate was read on Envision plate reader using Ex: 340 nm, Em: 615 nm and […]. The normalized 665/615 Signal ratio versus log compound concentration was analyzed by XLFIT to yield IC50 values.

[2] = target: GSK3α (GST-full length GSK3α) (Homo sapiens (Human), UniProt P49840); test: GSK3α TR-FRET kinase assay; type: biochemical
Procedure: as §1

[3] = 1 nM GSK3b, 2 μM ATP, 30 minute preincubation, Table 16, read-out: GSK3-B TR-FRET BIOCHEMICAL (TR-FRET)
[4] = 1 nM GSK3α, 4 μM ATP, 30 minute preincubation, Table 16, read-out: GSK3-A TR-FRET BIOCHEMICAL (TR-FRET)
[5] = 1 nM GSK3b, 2 μM ATP, 30 minute preincubation, read-out: GSK3-B TR-FRET BIOCHEMICAL (TR-FRET), IC50
[6] = 1 nM GSK3α, 4 μM ATP, 30 minute preincubation, read-out: GSK3-A TR-FRET BIOCHEMICAL (TR-FRET), IC50
[7] = 1 nM GSK3b, 2 μM ATP, 30 minute preincubation, Table 16, read-out: GSK3-B TR-FRET BIOCHEMICAL (TR-FRET), IC50
[8] = 1 nM GSK3α, 4 μM ATP, 30 minute preincubation, Table 16, read-out: GSK3-A TR-FRET BIOCHEMICAL (TR-FRET), IC50
[9] = 1 nM GSK3b, 2 μM ATP, 30 minute preincubation, geometric mean, read-out: GSK3-B TR-FRET BIOCHEMICAL (TR-FRET), GMean, IC50
[10] = 1 nM GSK3α, 4 μM ATP, 30 minute preincubation, geometric mean, read-out: GSK3-A TR-FRET BIOCHEMICAL (TR-FRET), GMean, IC50
[11] = read-out: GSK3-B (TR-FRET 1 mM ATP), GMean, IC50, 1 mM ATP, geometric mean
[12] = read-out: GSK3-A (TR-FRET 1 mM ATP), GMean, IC50, 1 mM ATP, geometric mean

Chain of GSK3b (GST-full length GSK3b) (P49841 whole entry): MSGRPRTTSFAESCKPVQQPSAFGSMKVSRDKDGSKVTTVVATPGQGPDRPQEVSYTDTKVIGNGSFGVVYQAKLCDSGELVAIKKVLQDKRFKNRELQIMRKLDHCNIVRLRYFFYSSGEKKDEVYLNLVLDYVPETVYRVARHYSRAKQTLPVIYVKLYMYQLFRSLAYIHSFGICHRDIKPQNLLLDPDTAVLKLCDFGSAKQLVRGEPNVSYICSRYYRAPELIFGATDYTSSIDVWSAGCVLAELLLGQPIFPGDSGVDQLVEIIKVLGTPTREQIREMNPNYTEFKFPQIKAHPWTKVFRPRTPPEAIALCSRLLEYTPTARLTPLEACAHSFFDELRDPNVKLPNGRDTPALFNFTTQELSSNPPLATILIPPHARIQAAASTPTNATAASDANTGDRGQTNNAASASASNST
Chain of GSK3α (GST-full length GSK3α) (P49840 whole entry): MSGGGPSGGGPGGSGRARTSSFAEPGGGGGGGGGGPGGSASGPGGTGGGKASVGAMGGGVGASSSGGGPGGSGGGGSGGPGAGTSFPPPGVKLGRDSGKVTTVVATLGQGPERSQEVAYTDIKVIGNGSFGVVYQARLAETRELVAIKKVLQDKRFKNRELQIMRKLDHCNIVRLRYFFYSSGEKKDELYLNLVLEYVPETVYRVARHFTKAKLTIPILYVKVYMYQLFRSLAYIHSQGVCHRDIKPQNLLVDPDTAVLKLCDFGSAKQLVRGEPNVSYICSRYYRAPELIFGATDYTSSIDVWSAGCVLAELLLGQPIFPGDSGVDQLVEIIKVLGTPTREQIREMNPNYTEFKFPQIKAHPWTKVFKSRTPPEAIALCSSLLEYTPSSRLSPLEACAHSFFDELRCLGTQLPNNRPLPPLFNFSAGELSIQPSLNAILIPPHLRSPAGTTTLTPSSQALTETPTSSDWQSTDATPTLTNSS

## CC1(C)CC(=O)C2=C(C1)Nc1n[nH]cc1[C@@]21CCCC(C)(C)C1 [Compound 883846]
[1]; [3]
  IC50: 1000 to 5000 nM
[2]; [4]
  IC50: 100 to 1000 nM

## CCC1(c2cccc(C(F)(F)F)c2)C2=C(CN(c3ccccc3)C2=O)Nc2n[nH]cc21 (stereo not shown) [Compound 945377]
[1]; [5]
  IC50: 1000 to 5000 nM
[2]; [6]
  IC50: 100 to 1000 nM

## CC[C@]1(c2cccc(-c3ccncc3C(F)(F)F)c2)C2=C(CC(C)(C)C2=O)Nc2n[nH]cc21 [Compound 952757]
[1]; [7]
  IC50: > 5000 nM
[2]; [8]
  IC50: 1000 to 5000 nM

## CC1(C)CC2=C(C(=O)N1)C1(CCN(S(=O)(=O)c3ccc(F)cc3)CC1)c1c[nH]nc1N2 [Compound 943963]
[1]; [5]
  IC50: ≤ 100 nM
[2]; [6]
  IC50: ≤ 100 nM

## CC(=O)N1CCC2(C1)CC1(CO2)C2=C(CC(C)(C)CC2=O)Nc2n[nH]cc21 (stereo not shown) [Compound 948040]
[1]; [5]
  IC50: 100 to 1000 nM
[2]; [6]
  IC50: ≤ 100 nM

## CC[C@H]1C[C@@]2(CO1)C1=C(CC(C)(C)CC1=O)Nc1n[nH]cc12 [Compound 913214]
[1]; [3]
  IC50: 1000 to 5000 nM
[2]; [4]
  IC50: 100 to 1000 nM

## CC1(C)CC(=O)C2=C(C1)Nc1n[nH]cc1C21CCN(S(=O)(=O)c2cccc3ccncc23)CC1 [Compound 947901]
[1]; [3]
  IC50: ≤ 100 nM
[2]; [4]
  IC50: ≤ 100 nM

## CCC1(c2cccc(Cl)c2)C2=C(CC(C)(C)CC2=O)Nc2n[nH]c(C(F)(F)F)c21 (stereo not shown) [Compound 801309]
[1]; [9]
  IC50: > 1670 nM
[2]; [10]
  IC50: 1000 to 5000 nM

## CO[C@H]1CC[C@]2(CC1)C1=C(CC(C)(C)CC1=O)Nc1n[nH]cc12 [Compound 884119]
[1]; [3]
  IC50: 100 to 1000 nM
[2]; [4]
  IC50: ≤ 100 nM

## Cn1ccc(S(=O)(=O)N2CCC3(CC2)C2=C(Nc4n[nH]cc43)[C@H](F)C(C)(C)CC2=O)n1 [Compound 951709]
[1]; [3]
  IC50: 100 to 1000 nM
[2]; [4]
  IC50: ≤ 100 nM

## CCC1(c2cccc(C(F)(F)F)c2)C2=C(CCN(c3ccccc3)C2=O)Nc2n[nH]cc21 (stereo not shown) [Compound 929474]
[1]; [5]
  IC50: 100 to 1000 nM
[2]; [6]
  IC50: ≤ 100 nM

## CCC1(c2cccc(N3CCc4cnccc4C3)c2)C2=C(CC(C)(C)CC2=O)Nc2n[nH]cc21 (stereo not shown) [Compound 929449]
[1]; [7]
  IC50: 1000 to 5000 nM
[2]; [8]
  IC50: 1000 to 5000 nM

## CC1(C)CC(=O)C2=C(C1)Nc1n[nH]cc1[C@]21C[C@H](n2cccn2)C1 [Compound 884005]
[1]; [3]
  IC50: ≤ 100 nM
[2]; [4]
  IC50: ≤ 100 nM

## CCC1(c2ccccc2)C2=C(CCN(C)C2=O)Nc2n[nH]cc21 (stereo not shown) [Compound 883867]
[1]; [5]
  IC50: > 5000 nM
[2]; [6]
  IC50: > 5000 nM

## CC1(C)CC2=C(C(=O)[C@H]1F)[C@]1(CC[C@H](C(F)(F)F)CC1)c1c[nH]nc1N2 [Compound 918282]
[1]; [3]
  IC50: ≤ 100 nM
[2]; [4]
  IC50: ≤ 100 nM

## C[C@@H]1C[C@]2(CCN1S(=O)(=O)c1ccn(C)n1)C1=C(CC(C)(C)CC1=O)Nc1n[nH]cc12 [Compound 917160]
[1]; [3]
  IC50: 100 to 1000 nM
[2]; [4]
  IC50: 100 to 1000 nM

## CCC1(c2cccc(Oc3ncccn3)c2)C2=C(CC(C)(C)NC2=O)Nc2n[nH]c(F)c21 (stereo not shown) [Compound 950615]
[1]; [7]
  IC50: 100 to 1000 nM
[2]; [8]
  IC50: ≤ 100 nM

## CC1(C)CC(=O)C2=C(C1)Nc1n[nH]cc1C21COC2(CN(C(=O)CC3CC3)C2)C1 (stereo not shown) [Compound 947298]
[1]; [5]
  IC50: ≤ 100 nM
[2]; [6]
  IC50: ≤ 100 nM

## CC1(C)CC(=O)C2=C(Nc3n[nH]cc3[C@]23CC[C@@H](C(F)(F)F)CC3)[C@H]1F [Compound 918285]
[1]; [3]
  IC50: 100 to 1000 nM
[1]; GSK3-B (TR-FRET 1 mM ATP), GMean, IC50, 1 mM ATP, geometric mean
  IC50: > 5000 nM
[2]; [4]
  IC50: ≤ 100 nM
[2]; GSK3-A (TR-FRET 1 mM ATP), GMean, IC50, 1 mM ATP, geometric mean
  IC50: 1000 to 5000 nM

## CC1(C)CC(=O)C2=C(C1)Nc1n[nH]cc1C21COC2(CN(C(=O)C3(F)CCC3)C2)C1 (stereo not shown) [Compound 947736]
[1]; [5]
  IC50: 100 to 1000 nM
[2]; [6]
  IC50: ≤ 100 nM

## CCC1(c2cccc(N(C)c3nccc(OC)n3)c2)C2=C(CC(C)(C)CC2=O)Nc2n[nH]cc21 (stereo not shown) [Compound 929387]
[1]; [7]
  IC50: ≤ 100 nM
[2]; [8]
  IC50: ≤ 100 nM

## CCC1(c2cccc(S(=O)(=O)CCOC)c2)C2=C(CC(C)(C)CC2=O)Nc2n[nH]cc21 (stereo not shown) [Compound 918271]
[1]; [7]
  IC50: ≤ 100 nM
[2]; [8]
  IC50: ≤ 100 nM

## CCC1(c2cccc(-c3cc(OC)nc4ccccc34)c2)C2=C(CC(C)(C)NC2=O)Nc2n[nH]cc21 (stereo not shown) [Compound 949116]
[1]; [9]
  IC50: > 5000 nM
[2]; [10]
  IC50: > 5000 nM

## CC[C@]1(c2cccc(N(C)C(C)=O)c2)C2=C(CC(C)(C)CC2=O)Nc2n[nH]cc21 [Compound 810359]
[1]; [9]
  IC50: > 5000 nM
[2]; [10]
  IC50: > 5000 nM

## CC[C@@]1(c2cccc(C(F)F)c2)C2=C(CC(C)(C)CC2=O)Nc2n[nH]cc21 [Compound 826717]
[1]; [9]
  IC50: ≤ 100 nM
[1]; [11]
  IC50: 1000 to 5000 nM
[2]; [10]
  IC50: ≤ 100 nM
[2]; [12]
  IC50: 100 to 1000 nM

## CCC1(c2cccc(C(F)(F)F)c2)C2=C(Nc3n[nH]cc31)C(C)NC2=O (stereo not shown) [Compound 945379]
[1]; [5]
  IC50: 1000 to 5000 nM
[2]; [6]
  IC50: 100 to 1000 nM

## CCC1(c2cccc(C(F)(F)F)c2)C2=C(CCN(c3cccc(C)c3)C2=O)Nc2n[nH]cc21 (stereo not shown) [Compound 948052]
[1]; [9]
  IC50: 100 to 1000 nM

## CCC1(c2cccc(-c3ncnn3C)c2)C2=C(CC(C)(C)CC2=O)Nc2n[nH]cc21 (stereo not shown) [Compound 945472]
[1]; [3]
  IC50: 100 to 1000 nM

## CCC1(c2cccc(C(F)(F)F)c2)C2=C(Nc3n[nH]cc31)C(C)N(C)C2=O (stereo not shown) [Compound 913454]
[1]; [3]
  IC50: 100 to 1000 nM

## CCC1(c2cccc(-c3cnn(C)c3)c2)C2=C(CC(C)(C)NC2=O)Nc2n[nH]c(C)c21 (stereo not shown) [Compound 944027]
[1]; [5]
  IC50: 100 to 1000 nM

## CN(C)S(=O)(=O)c1cccc(C2(C)C3=C(CC(C)(C)CC3=O)Nc3n[nH]c(CC(C)(C)C)c32)c1 (stereo not shown) [Compound 126013]
[1]; [11]
  IC50: > 5000 nM

## CCC1(c2cccc(N(C)c3cc(C)ccn3)c2)C2=C(CC(C)(C)CC2=O)Nc2n[nH]cc21 (stereo not shown) [Compound 945609]
[1]; [3]
  IC50: 100 to 1000 nM

## CC(C)(C)Cc1[nH]nc2c1C(C)(c1cc(S(C)(=O)=O)ccc1F)C1=C(CC(C)(C)CC1=O)N2 (stereo not shown) [Compound 125977]
[1]; [11]
  IC50: > 5000 nM

## CC(C)(C)Cc1[nH]nc2c1C(C)(c1cccc(N3CCOCC3)c1)C1=C(CC(C)(C)CC1=O)N2 (stereo not shown) [Compound 126399]
[1]; [11]
  IC50: > 5000 nM

## CCC1(c2cccc(C(F)(F)F)c2)C2=C(CC(C)NC2=O)Nc2n[nH]cc21 (stereo not shown) [Compound 912096]
[1]; [5]
  IC50: 100 to 1000 nM

## Cc1ccc(S(C)(=O)=O)cc1C1(C)C2=C(CC(C)(C)CC2=O)Nc2n[nH]c(CC(C)(C)C)c21 (stereo not shown) [Compound 126398]
[1]; [11]
  IC50: > 5000 nM

## CCC1(c2cccc(-c3c(C)nnn3C)c2)C2=C(CC(C)(C)CC2=O)Nc2n[nH]cc21 (stereo not shown) [Compound 946099]
[1]; [11]
  IC50: 100 to 1000 nM

## CCC1(c2cccc(-c3ccncn3)c2)C2=C(CC(C)(C)CC2=O)Nc2n[nH]cc21 (stereo not shown) [Compound 810488]
[1]; [9]
  IC50: 100 to 1000 nM

## C[S+]([O-])c1cccc(C2(C)C3=C(CC(C)(C)CC3=O)Nc3n[nH]c(CC(C)(C)C)c32)c1 (stereo not shown) [Compound 126193]
[1]; [11]
  IC50: > 5000 nM

## CCC1(c2cccc(N3CCCCC3)c2)C2=C(CC(C)(C)NC2=O)Nc2n[nH]c(C(F)(F)F)c21 (stereo not shown) [Compound 947861]
[1]; [11]
  IC50: 100 to 1000 nM

## CC[C@@]1(c2cccc(C(F)(F)F)c2)C2=C(Nc3n[nH]cc31)[C@H](C)N(C)C2=O [Compound 913473]
[1]; [3]
  IC50: 100 to 1000 nM

## Cn1cc(-c2cccc(C3(C)C4=C(CC(C)(C)CC4=O)Nc4n[nH]c(CC(C)(C)C)c43)c2)cn1 (stereo not shown) [Compound 126394]
[2]; [12]
  IC50: > 5000 nM

## CCC1(c2cccc(C3CCOCC3)c2)C2=C(CC(C)(C)CC2=O)Nc2n[nH]cc21 (stereo not shown) [Compound 791273]
[1]; [9]
  IC50: 100 to 1000 nM
